From patent US11433028B2, “Compositions for treating viral infections and methods for same” (Tiger Development, LLC, priority 2018, dated 2022)

Key:
SARS-CoV-2 [1] = test system: SARS-CoV-2; design: species or system mice; conditions: mouse, in vivo
SARS-CoV-2 [2] = format: in vivo, mice

polylysine
improved survival rate (SARS-CoV-2 [1]): 50%
onset of morbidity (SARS-CoV-2 [1]): delayed onset of morbidity
increase in total survival across the treatment period (SARS-CoV-2 [2]; mouse, in vivo): 5 fold
mice surviving the treatment and exposure period (SARS-CoV-2 [2]; mouse, in vivo): six of ten
body weight after the treatment and exposure period (recovery) (SARS-CoV-2 [2]; surviving mice, p<0.05, FIG. 3A/3B): increasing weight to near pre-treatment levels
